In US10544154B2, “Opioid receptor antagonist prodrugs” (Nirsum Laboratories, Inc., priority 2017, dated 2020):

Columns and labels:
[1] = Plasma stability, rat plasma (HPLC-MS); assay type: in vitro ADME; details: 10 μM, 37° C.
Experimental: Plasma stability determination of the test compounds in rat, dog, cynomolgus monkey and human plasma is performed using HPLC-MS. For rat, incubations are carried out in 96-well polypropylene plates in 5 aliquots of 70 μL each (one for each time point). […] Five time points are analyzed (0, 15, 120, 480 and 1440 min). For dog, monkey and human, test compounds (2 μM, final solvent concentration 1%) were also incubated at 37° C. and analyzed at five time points (0, 10, 30, 60 and 120 min). All incubations are performed in duplicates. The samples are analyzed by HPLC-MS. The percentage of parent compound remaining after incubation in plasma is determined.

[2] = Polymorph screening of solid state drug substances; assay type: physicochemical; details: for Dry method and appearance: after stirring at 50 °C for 72 hours; for XRPD results (Dried): dried solid

Compound | % remaining at time point in minutes, 0 min [1] [%] | Dry method and appearance ([2]; Acetone) | XRPD results (Dried) ([2]; Acetone) | Dry method and appearance ([2]; EtOAc) | XRPD results (Dried) ([2]; EtOAc) | Dry method and appearance ([2]; Heptane) | XRPD results (Dried) ([2]; Heptane) | Dry method and appearance ([2]; Isopropanol) | XRPD results (Dried) ([2]; Isopropanol) | Dry method and appearance ([2]; MTBE) | XRPD results (Dried) ([2]; MTBE) | % remaining at time point in minutes, 15 min [1] [%] | % remaining at time point in minutes, 120 min [1] [%] | % remaining at time point in minutes, 480 min [1] [%] | % remaining at time point in minutes, 1440 min [1] [%] | Visual observation RT ([2]; Acetone, target conc. 100 mg/ml, RT)
CCCCCCCCCCCCCCCC(=O)Oc1ccc2c3c1O[C@H]1C(=O)CC[C@@]4(O)C(C2)N(CC2CC2)CC[C@]314 [Compound 55, (4aS,7aR,12bS)-3-(cyclopropylmethyl)-4a-hydroxy-7-oxo-2,3,4,4a,5,6,7,7a-octahydro-1H-4,12-methanobenzofuro[3,2-e]isoquinolin-9-yl palmitate] | 100 | Evaporation/white powder | Pattern B | Evaporation/white powder | Pattern B | Evaporation/white powder | Pattern B | Evaporation/white powder | Pattern B | Evaporation/white powder | Pattern B |  |  |  |  | 
C=C1CC[C@@]2(O)C3Cc4ccc(OC(=O)OCCCCCCCC)c5c4[C@@]2(CCN3CC2CC2)[C@H]1O5 [Compound 17, (4aS,7aS,12bS)-3-(cyclopropylmethyl)-4a-hydroxy-7-methylene-2,3,4,4a,5,6,7,7a-octahydro-1H-4,12-methanobenzofuro[3,2-e]isoquinolin-9-yl octyl carbonate] | 100 |  |  |  |  |  |  |  |  |  |  | 0 | 0 | 0 | 0 | 
CCCCCCCCCCCCCC(=O)Oc1ccc2c3c1O[C@H]1C(=O)CC[C@@]4(O)C(C2)N(CC2CC2)CC[C@]314 [Compound 57, (4aS,7aR,12bS)-3-(cyclopropylmethyl)-4a-hydroxy-7-oxo-2,3,4,4a,5,6,7,7a-octahydro-1H-4,12-methanobenzofuro[3,2-e]isoquinolin-9-yl tetradecanoate] | 100 |  |  |  |  |  |  |  |  |  |  |  | 3.2 | 1.2 | 0 | 
CCCCCCCCCCCCOC(=O)Oc1ccc2c3c1O[C@H]1C(=O)CC[C@@]4(O)C(C2)N(CC2CC2)CC[C@]314 [Compound 11, (4aS,7aR,12bS)-3-(cyclopropylmethyl)-4a-hydroxy-7-oxo-2,3,4,4a,5,6,7,7a-octahydro-1H-4,12-methanobenzofuro[3,2-e]isoquinolin-9-yl dodecyl carbonate] | 100 | Evaporation/white powder | Pattern A | Evaporation/white powder | Pattern A | Evaporation/white powder | Pattern B | Evaporation/white powder | Pattern A | Evaporation/white powder | Pattern A | 0.7 | 0.3 | 0.2 | 0 | 
CCCCCCCCCCCCCCCCCCCCCC(=O)Oc1ccc2c3c1O[C@H]1C(=O)CC[C@@]4(O)C(C2)N(CC2CC2)CC[C@]314 [Compound 51, (4aS,7aR,12bS)-3-(cyclopropylmethyl)-4a-hydroxy-7-oxo-2,3,4,4a,5,6,7,7a-octahydro-1H-4,12-methanobenzofuro[3,2-e]isoquinolin-9-yl docosanoate] | 100 |  |  |  |  |  |  |  |  |  |  |  |  |  |  | 
Enalapril maleate salt [reference compound] | 100 |  |  |  |  |  |  |  |  |  |  | 44 | 2.9 | 8.2 | 4.8 | 
CCCCCCCCCCCCCCCCCC(=O)Oc1ccc2c3c1O[C@H]1C(=O)CC[C@@]4(O)C(C2)N(CC2CC2)CC[C@]314 [Compound 54, (4aS,7aR,12bS)-3-(cyclopropylmethyl)-4a-hydroxy-7-oxo-2,3,4,4a,5,6,7,7a-octahydro-1H-4,12-methanobenzofuro[3,2-e]isoquinolin-9-yl stearate] | 100 |  |  |  |  |  |  |  |  |  |  |  |  |  |  | 
CCCCCCCCCCCCCCCCCCCC(=O)Oc1ccc2c3c1O[C@H]1C(=O)CC[C@@]4(O)C(C2)N(CC2CC2)CC[C@]314 [Compound 50, (4aS,7aR,12bS)-3-(cyclopropylmethyl)-4a-hydroxy-7-oxo-2,3,4,4a,5,6,7,7a-octahydro-1H-4,12-methanobenzofuro[3,2-e]isoquinolin-9-yl icosanoate] | 100 |  |  |  |  |  |  |  |  |  |  |  |  |  |  | 
C=C1CC[C@@]2(O)C3Cc4ccc(OC(=O)CCCCCCCCCCCCCCCCCCCCC)c5c4[C@@]2(CCN3CC2CC2)[C@H]1O5 [Compound 14, (4aS,7aS,12bS)-3-(cyclopropylmethyl)-4a-hydroxy-7-methylene-2,3,4,4a,5,6,7,7a-octahydro-1H-4,12-methanobenzofuro[3,2-e]isoquinolin-9-yl docosanoate] | 100 | Evaporation/white powder | Pattern A | Evaporation/white powder | Pattern A | Centrifugation/white powder | Pattern B | Evaporation/white powder | Pattern A | Evaporation/white powder | Pattern A | 94 |  |  | 120 | Slurry
CCCCCCCCCCOC(=O)Oc1ccc2c3c1O[C@H]1C(=O)CC[C@@]4(O)C(C2)N(CC2CC2)CC[C@]314 [Compound 10, (4aS,7aR,12bS)-3-(cyclopropylmethyl)-4a-hydroxy-7-oxo-2,3,4,4a,5,6,7,7a-octahydro-1H-4,12-methanobenzofuro[3,2-e]isoquinolin-9-yl decyl carbonate] | 100 | Evaporation/White wax | Pattern A | Evaporation/White wax | Pattern A | Centrifugation/White wax | Pattern A | Evaporation/White wax | Pattern A | Evaporation/White wax | Pattern A | 0 | 0 | 0 | 0 | 
C=C1CC[C@@]2(O)C3Cc4ccc(OC(=O)OCCCCCCCCCC)c5c4[C@@]2(CCN3CC2CC2)[C@H]1O5 [Compound 18, (4aS,7aS,12bS)-3-(cyclopropylmethyl)-4a-hydroxy-7-methylene-2,3,4,4a,5,6,7,7a-octahydro-1H-4,12-methanobenzofuro[3,2-e]isoquinolin-9-yl decyl carbonate] | 100 |  |  |  |  |  |  |  |  |  |  | 0.6 | 0.3 | 0.1 | 0 | 
C=C1CC[C@@]2(O)C3Cc4ccc(OC(=O)CCCCCCC/C=C\CCCCCCCC)c5c4[C@@]2(CCN3CC2CC2)[C@H]1O5 [Compound 36, (4aS,7aS,12bS)-3-(cyclopropylmethyl)-4a-hydroxy-7-methylene-2,3,4,4a,5,6,7,7a-octahydro-1H-4,12-methanobenzofuro[3,2-e]isoquinolin-9-yl oleate] | 100 |  |  |  |  |  |  |  |  |  |  |  |  |  |  | 
C=C1CC[C@@]2(O)C3Cc4ccc(OC(=O)OCCCCCCCCCCCCC)c5c4[C@@]2(CCN3CC2CC2)[C@H]1O5 [Compound 30, (4aS,7aS,12bS)-3-(cyclopropylmethyl)-4a-hydroxy-7-methylene-2,3,4,4a,5,6,7,7a-octahydro-1H-4,12-methanobenzofuro[3,2-e]isoquinolin-9-yl tridecyl carbonate] | 100 |  |  |  |  |  |  |  |  |  |  |  |  |  |  | 
C=C1CC[C@@]2(O)C3Cc4ccc(OC(=O)OCCCCCCCCCCCCCC)c5c4[C@@]2(CCN3CC2CC2)[C@H]1O5 [Compound 31, (4aS,7aS,12bS)-3-(cyclopropylmethyl)-4a-hydroxy-7-methylene-2,3,4,4a,5,6,7,7a-octahydro-1H-4,12-methanobenzofuro[3,2-e]isoquinolin-9-yl tetradecyl carbonate] | 100 | Evaporation/white powder | Pattern A | Evaporation/white powder | Pattern A | Evaporation/white powder | Pattern A | Evaporation/white powder | Pattern A | Evaporation/white powder | Pattern A |  |  |  |  | 
